Entries after “also recorded” stand apart in the source; their conditions may differ.
Key:
[1] = system: FANCD2 foci and γH2AX in U2OS cells; experiment: High-throughput high content indirect immunofluorescence (FANCD2 foci, γH2AX); format: cell-based; details: for γH2AX positive cells / γH2AX levels: CU1 200 μM or CU2 500 μM in combination with HU (2.5 mM, 8 h) or cisplatin (10 μM, 8 h); for H2AX positive nuclei, Experiment 1 / H2AX positive nuclei, Experiment 2 / H2AX positive nuclei, Experiment 3: CU1 200 μM, raw data; for H2AX positive nuclei, Experiment 1 / H2AX positive nuclei, Experiment 2 / H2AX positive nuclei, Experiment 3 / H2AX positive nuclei, Totals: CU2 500 μM, HU 2.5 mM 8 h, cisplatin 10 μM 8 h; for number of FANCD2 foci per cell: 8 h, CU1 200 μM or CU2 500 μM; for H2AX positive nuclei, Totals: sum of experiments 1-3, CU1 200 μM
Procedure: In response to DNA damage, mUb-FANCD2 accumulates at sites of DNA lesions to form foci, promote DNA-damage sensing, activate cell-cycle checkpoints, and promote DNA repair.[23] Therefore, we employed high-throughput high-content indirect immunofluorescence studies to examine the effect of CU1 and CU2 on mUb-FANCD2 focus formation. The experimental format used was similar to the immunoblot-based experiments, excepting that, following treatment with HU (2.5 mM for 8 h) or cisplatin (10 μM for 8 h), cells were fixed, permeabilized and stained with specific FANCD2 primary and fluorescent secondary antibodies. In addition to monitoring mUb-FANCD2 foci, γH2AX was evaluated as a marker of DNA damage induction, and cell nuclei were visualized by 4′,6-diamidino-2-phenylindole (DAPI) staining. […] These observations are in accord with the immunoblot-based experiments wherein reductions in mUb-FANCD2 were observed (Figure 3a).
Figure 4 Further cell-based assays with CU1 and CU2: (a, b) Representative immunofluorescence images of U2OS cells treated with HU (2.5 mM, 8 h) or cisplatin (10 μM, 8 h) in the presence or absence of CU1 (200 μM) or CU2 (500 μM). (c) Quantification of the number of FANCD2 foci in cells treated as in panels (a) and (b). Data accumulated over three independent experiments, each consisting of three technical replicas. (d) IncuCyte analysis of U2OS cells treated with or without carboplatin (15 μM) and CU2 (250 μM). Mean calculated from three wells, four images per well. (HU = DMSO + HU, cisplatin = DMSO + cisplatin). […]
buffer (1 hour at room temperature) followed by three washes with PBST. Cells were then counterstained with DAPI (25 µg/mL) and mounted using Vectashield […]
High-throughput high content indirect immunofluorescence. U2OS cells, seeded in a 96-well plate, were treated with compound for 1 hour followed by 2.5 mM HU or 10 µM cisplatin for 8 hours. Cells were washed 3 times with wash buffer (1xPBS, 0.1% Tween-20) before being fixed in 2% paraformaldehyde (w/v) for 20 minutes at 23 °C. The cells were then washed a further 3 times in wash buffer before being stored overnight at 4°C in the final wash. Next day, the cells were permeabilized using 1xPBS, 0.5% Triton X-100 for 15 minutes at 23 °C and then washed 3 times with wash buffer before blocking with 5% BSA in 1xPBS, 0.1% Tween-20 for 30 minutes at 23 °C. After washing 3 times with wash buffer, the cells were incubated for 1 hour at 23 °C in the presence of primary antibodies (1:50 FANCD2, Santa Cruz, mouse monoclonal and 1:250 γH2AX, Cell Signalling, rabbit) in 5% BSA in wash buffer. After incubation in the presence of primary antibodies, the cells were washed 3 times with wash buffer before being incubated with secondary antibodies in 5% BSA in wash buffer for 1 hour in the dark at 23 °C. The secondary antibodies used were goat anti-mouse AlexaFluor 488 and goat anti-rabbit AlexaFluor 594 (both from Molecular Probes, Invitrogen). The cells were then washed a further 3 times with wash buffer before being stained in the presence of 2 µg/ml DAPI (Sigma D9542) in wash buffer for 10 minutes in the dark at 23 °C. After DAPI staining, the cells were washed 3 more times with wash buffer and stored in the final wash until ready for imaging.
A spinning-disk Opera PhenixTM (Perkin Elmer) microscope equipped with a 40x water immersion objective was employed to acquire 10 confocal images for each well in a single optimized focal plane comprising three fluorescence channels: 405, 488 and 568 nm for DAPI, Alexa Fluor 488 and Alexa Fluor 594, respectively. Image analysis and evaluation was done using Harmony High-Content Imaging and Analysis software. DAPI staining (405 nm) was used to segment nuclei, which were further gated for the presence of γH2AX staining

[2] = system: U2OS cells; experiment: Tolerance / cytotoxicity of compounds in U2OS cells; format: cell-based; details: compound at 500 μM, 8 h assay
Procedure: U2OS cells were treated with HU and the formation of mUb-FANCD2 in the presence of CU 1, CU2, and CU9 was evaluated relative to a DMSO control. Following a 1-h preincubation with the compounds, cells were treated with 2.5 mM of HU for 24 h. […] Accordingly, cells were treated with a higher concentration of compounds in further experiments.

[3] = in the presence of HU 2.5 mM, relative to HU alone
[4] = in the presence of cisplatin 10 μM, relative to cisplatin alone

Row | Compound | γH2AX positive cells / γH2AX levels [1] | H2AX positive nuclei, Experiment 1 [1] | H2AX positive nuclei, Experiment 2 [1] | H2AX positive nuclei, Experiment 3 [1] | number of FANCD2 foci per cell [1, 3] | number of FANCD2 foci per cell [1, 4] | H2AX positive nuclei, Totals [1] | tolerance by cells [2]
1 | NCCN1C(=O)CC[C@H]2CN(Cc3cccc(-c4ccco4)c3)CC[C@H]21 [CU1] | no reduction in γH2AX positive cells; also recorded: do not significantly affect | 40 | 279 | 126 | clear reduction in the number of FANCD2 foci per cell | clear reduction in the number of FANCD2 foci per cell | 445 | 
2 | CCN1CCN(c2cc(C)nc3nc(CN4CCCCC4C)nn23)CC1 (stereo not shown) [CU2] | no reduction in γH2AX positive cells; also recorded: do not significantly affect | 56 | 303 | 79 | clear reduction in the number of FANCD2 foci per cell | clear reduction in the number of FANCD2 foci per cell | 438 | tolerated
3 | Cc1nnc(N(C)CC2CCN(CC(C)O)CC2)c(C#N)c1C (stereo not shown) [CU9] |  |  |  |  |  |  |  | tolerated

— PMC6804243, “Small-Molecule Inhibition of UBE2T/FANCL-Mediated Ubiquitylation in the Fanconi Anemia Pathway” (ACS Chemical Biology, 2019)
